Assay results published in article PMC7542364 (mBio, 2020).

Assays:
[1] = biological target: McpBC (McpB cytoplasmic region, residues 305 to 662) (Bacillus subtilis, UniProt P39215); details: 50 uM protein, 3 mM ethanol, PBS in D2O pH 7.4, 298 K
[2] = biological target: HemATN (HemAT sensing domain, residues 1 to 178) (Bacillus subtilis, UniProt O07621); details: 50 uM protein, 3 mM ethanol, modified PBS pH 8.0, 10% D2O, 298 K; heme not involved (UV spectra)
Sequence of HemATN (HemAT sensing domain, residues 1 to 178) (O07621 1-178): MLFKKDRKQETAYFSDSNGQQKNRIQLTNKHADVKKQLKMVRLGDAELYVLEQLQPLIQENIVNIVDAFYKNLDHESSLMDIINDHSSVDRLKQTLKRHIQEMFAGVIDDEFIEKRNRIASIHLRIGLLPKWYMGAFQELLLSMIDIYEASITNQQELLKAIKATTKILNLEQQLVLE

Sequence of McpBC (McpB cytoplasmic region, residues 305 to 662) (P39215 305-662): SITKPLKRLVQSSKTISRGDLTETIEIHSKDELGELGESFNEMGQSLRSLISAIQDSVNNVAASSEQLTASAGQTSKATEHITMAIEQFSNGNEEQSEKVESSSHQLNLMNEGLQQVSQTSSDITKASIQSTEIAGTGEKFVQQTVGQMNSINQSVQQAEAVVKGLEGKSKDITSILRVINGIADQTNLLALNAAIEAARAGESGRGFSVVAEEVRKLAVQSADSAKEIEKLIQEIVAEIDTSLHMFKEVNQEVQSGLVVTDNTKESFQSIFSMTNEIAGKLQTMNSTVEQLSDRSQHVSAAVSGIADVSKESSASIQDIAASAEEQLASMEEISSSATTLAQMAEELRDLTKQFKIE

saturation fraction (STD/1H area ratio, -CH3) [1]: 0.23
STD/1H area ratio, -CH3 (-CH2 0.85) [2]: 0.27
SMILES: CCO [ethanol]
